# US20030096264A1, “Multi-parameter high throughput screening assays (MPHTS)” (Psychiatric Genomics, Inc., priority 2001, published 2003)
# System: rat hippocampus
# Assay: In vivo expression profile in hippocampus of rats treated with valproate
# Conditions: three weeks
# Description: Specifically, in these experiments rats were treated with valproate, and gene expression levels in the hippocampus of each rat were measured for a plurality of different genes.
# In more detail, twenty rats were divided into two groups, containing ten individuals each. One group of ten rats was used as the control group, whereas the other group functioned as the experimental group. Each rat in the experimental group was injected twice daily with 250 mg valproate for each kilogram of the rat's body mass. Each rat in the control group was similarly injected, but with a vehicle that contained no active ingredient. After three weeks dosing, the rats were sacrificed and their brains removed. Each rat's brain was divided in half. The hippocampus was then removed from each half and flash frozen. The half hippocampus tissue from the rats in each group was combined and total RNA was extracted from the tissue using TriReagent (Invitrogen Corp., Carlsbad Calif.) following the manufacturer's instructions. mRNA was purified with Oligotext (Qiagen Inc., Valencia Calif.) following the manufacturer's recommended protocol. mRNA quality and concentration was determined using the Agilent Bioanalyzer.
# For expression profile analysis, mRNA from the pooled tissues of the control group was measured with Cy3 dye, and mRNA from the pooled tissues of the experimental group was measured with Cy5 dye. The labeled probes were then mixed and hybridized to a Rat Tox3 microarray (Incyte Genomics, Palo Alto Calif.). The relative signal intensity from each fluorescent dye was measured for each element (i.e., for each “gene”) on the microarray, normalized for differences, and the relative difference in expression level determined.
# The relative differences in expression levels for various genes are plotted in FIG. 4. Specifically, each point on the plot represents a gene whose expression level was measured in both the experimental and control groups. Each point's position along the horizontal axis indicates the relative Cy3 signal intensity measured for that gene and reflects, therefore, the gene's expression in rats that were not treated with valproate. A point's position along the vertical axis indicates the relative Cy5 signal intensity measured for the corresponding gene, reflecting the gene's expression in the hippocampus of rats that were treated with valproate. […] By contrast, changes by at least a factor of 1.5 (i.e., θ≧1.5) indicate significant changes in expression in response to the valproate treatment (identified using a Rat Toxicology array from Incyte, Palo Alto, Calif.). These genes are listed in Table 5, below, along with GenBank Accession number for those genes. Again, a cDNA sequence for each gene listed in Table 5 is also provided in the accompanying Sequence Listing, and its sequence identifier is specified in Table 5 along with the GenBank Accession number.
compound,measurement,setting,value
CCCC(CCC)C(=O)O [valproate],Φ: pol polyprotein,"250 mg/kg twice daily, AAC31805 SEQ ID NO: 85",1.9
same,Φ: CGI-83 protein,"250 mg/kg twice daily, AAD34078 SEQ ID NO: 89",1.9
same,Φ: CGI-86 protein,"250 mg/kg twice daily, AAD34081 SEQ ID NO: 88",1.9
same,"Φ: Rat RT1-DOb gene, partial cds.","250 mg/kg twice daily, AB008110 SEQ ID NO: 63",2.4
same,Φ: Mouse BAC-146N21 Chromosome X contains iduronate-2-sulfatase gene; complete sequence.,"250 mg/kg twice daily, AC002315 SEQ ID NO: 96",1.8
same,"Φ: Mouse chromosome unknown clone rp21-657p21 strain 129S6/SvEvTac, complete sequence.","250 mg/kg twice daily, AC005743 SEQ ID NO: 62",2.5
same,"Φ: Mouse chromosome 18 clone mgsriii-pl-3084 strain RIII Fibroblast cell line C 127, complete sequence.","250 mg/kg twice daily, AC007665 SEQ ID NO: 75",2.1
same,"Φ: Mouse chromosome 10, clone RP21-247L16, complete sequence.","250 mg/kg twice daily, AC012302 SEQ ID NO: 87",1.9
same,"Φ: Mouse chromosome 18 clone RP23-16108, complete sequence.","250 mg/kg twice daily, AC020967 SEQ ID NO: 57",3.1
same,Φ: Mouse TCR beta locus from bases 250554 to 501917 (section 2 of 3) of the complete sequence.,"250 mg/kg twice daily, AE000664 SEQ ID NO: 58",2.8
same,Φ: Mouse TCR beta locus from bases 250554 to 501917 (section 2 of 3) of the complete sequence.,"250 mg/kg twice daily, AE000664 SEQ ID NO: 61",2.5
same,Φ: Mouse TCR beta locus from bases 250554 to 501917 (section 2 of 3) of the complete sequence.,"250 mg/kg twice daily, AE000664 SEQ ID NO: 79",2
same,"Φ: Rat strain Long Evans shaker myelin basic protein (Mbp) gene, intron 3, interrupted by ETn retrotransposon.","250 mg/kg twice daily, AF076337 SEQ ID NO: 65",2.3
same,"Φ: Mouse LDL receptor member LR3 mRNA, complete cds.","250 mg/kg twice daily, AF077847 SEQ ID NO: 70",2.2
same,"Φ: Mouse MHC class III region RD gene, partial eds; Bf, C2, G9A, NG22, G9, HSP70, HSP70, HSC70t, and smRNP genes, complete cds; G7A gene, partial cds; and unknown genes.","250 mg/kg twice daily, AF109906 SEQ ID NO: 86",1.9
same,"Φ: Mouse chromosome X clone BAC B22804, complete sequence.","250 mg/kg twice daily, AF121351 SEQ ID NO: 71",2.2
same,"Φ: Mouse (Mus musculus domesticus) X chromosome region similar to Human DXS963E, complete sequence.","250 mg/kg twice daily, AF130357 SEQ ID NO: 97",1.8
same,"Φ: Rat cytosolic branch chain aminotransferase BCATc mRNA, partial cds.","250 mg/kg twice daily, AF 165887 SEQ ID NO: 111",−1.5
same,"Φ: Rat calmodulin mRNA, complete cds.","250 mg/kg twice daily, AF178845 SEQ ID NO: 102",−1.6
same,"Φ: Mouse Naip3 gene, exon 1; neuronal apoptosis inhibitory protein 1 (Naip 1) and general transcription factor IIH polypeptide 2 (Gtf2h2) genes, complete cds.","250 mg/kg twice daily, AF242432 SEQ ID NO: 80",2
same,"Φ: Mouse BAC 171m12 MESDC1 (Mesdc1) and MESDC2 (Mesdc2) genes, complete cds.","250 mg/kg twice daily, AF311213 SEQ ID NO: 67",2.3
same,Φ: Rat gene encoding tyrosine aminotransferase.,"250 mg/kg twice daily, AJ010709 SEQ ID NO: 93",1.8
same,Φ: Rat mRNA for Sulfotransferase K2.,"250 mg/kg twice daily, AJ238392 SEQ ID NO: 77",2
same,Φ: unnamed protein product,"250 mg/kg twice daily, BAB15010 SEQ ID NO: 90",1.8
same,Φ: hypothetical protein,"250 mg/kg twice daily, CAB70864 SEQ ID NO: 117",−1.5
same,"Φ: Rat mRNA for histamine N-methyltransferase, complete cds.","250 mg/kg twice daily, D10693 SEQ ID NO: 72",2.1
same,"Φ: Rat mRNA for delta-4-3-ketosteroid 5-beta-reductase, complete cds.","250 mg/kg twice daily, D17309 SEQ ID NO: 68",2.2
same,"Φ: Rat mRNA for 14-3-3 protein theta-subtype, complete cds.","250 mg/kg twice daily, D17614 SEQ ID NO: 109",−1.5
same,"Φ: Mouse mRNA for plexin 2, complete cds.","250 mg/kg twice daily, D86949 SEQ ID NO: 95",1.8
same,"Φ: Rat clathrin heavy chain mRNA, complete cds.","250 mg/kg twice daily, J03583 SEQ ID NO: 112",−1.5
same,Φ: rat myelin basic protein (mbp) gene mrna.,"250 mg/kg twice daily, K00512 SEQ ID NO: 99",−1.6
same,Φ: Rat long terminal repeat DNA sequence.,"250 mg/kg twice daily, L19707 SEQ ID NO: 73",2.1
same,"Φ: Rat stress activated protein kinase alpha I mRNA, complete cds.","250 mg/kg twice daily, L27111 SEQ ID NO: 105",−1.5
same,"Φ: Murine phosphoprotein phosphatase mRNA, complete cds.","250 mg/kg twice daily, M8 1475 SEQ ID NO: 114",−1.5
same,"Φ: Mouse myelin proteolipid protein mRNA, complete cds.","250 mg/kg twice daily, M15442 SEQ ID NO: 103",−1.6
same,"Φ: Rat nuclear-encoded mitochondrial ATP synthase beta-subunit mRNA, 5′ end.","250 mg/kg twice daily, M25301 SEQ ID NO: 107",−1.5
same,"Φ: Rat calcincurin A mRNA, complete cds.","250 mg/kg twice daily, M29275 SEQ ID NO: 98",−1.7
same,"Φ: Rat senescence marker protein 2B gene, exons 1 and 2.","250 mg/kg twice daily, M29302 SEQ ID NO: 81",1.9
same,"Φ: Rat thymosin beta-4 mRNA, complete cds.","250 mg/kg twice daily, M34043 SEQ ID NO: 104",−1.5
same,"Φ: Rat cytochrome P450 IV A1 (CYP4A1) gene, complete cds.","250 mg/kg twice daily, M57718 SEQ ID NO: 64",2.4
same,"Φ: Rat (LxRN3) LINE 1 repeat element, ORF II.","250 mg/kg twice daily, M60824 SEQ ID NO: 66",2.3
same,"Φ: Rat (clone pRHx1) hemopexin mRNA, complete cds.","250 mg/kg twice daily, M62642 SEQ ID NO: 84",1.9
same,"Φ: Rat 3-alpha-hydroxysteroid dehydrogenase (3-alpha-HSD) mRNA, complete cds.","250 mg/kg twice daily, M64393 SEQ ID NO: 69",2.2
same,Φ: Rat kallikrein-binding protein (RKBP) gene.,"250 mg/kg twice daily, M67496 SEQ ID NO: 74",2.1
same,"Φ: {clone 6B1, intracisternal A-particle derived LTR fragment} [rats, Genomic, 208 nt].","250 mg/kg twice daily, S51653 SEQ ID NO: 76",2.1
same,"Φ: {clone E512, estrogen induced gene} [rats, Sprague-Dawley, hypothalamus, mRNA Partial, 259 nt].","250 mg/kg twice daily, S74327 SEQ ID NO: 118",−1.5
same,"Φ: Rat Sprague-Dawley UDP-glucuronosyltransferase (UGT2B12) mRNA, complete cds.","250 mg/kg twice daily, U06273 SEQ ID NO: 59",2.7
same,Φ: Rat LEW/N clone D0N544 satellite DNA sequence.,"250 mg/kg twice daily, U06685 SEQ ID NO: 82",1.9
same,Φ: Rat Eker rat-associated intracisternal-A-particle element.,"250 mg/kg twice daily, U23776 SEQ ID NO: 83",1.9
same,Φ: Rat Eker rat-associated intracisternal-A-particle element.,"250 mg/kg twice daily, U23776 SEQ ID NO: 94",1.8
same,"Φ: Rat protein kinase C-binding protein NELL2 mRNA, complete cds.","250 mg/kg twice daily, U48245 SEQ ID NO: 106",−1.5
same,"Φ: Mouse hippocampal amyloid precursor protein mRNA, complete cds.","250 mg/kg twice daily, U84012 SEQ ID NO: 116",−1.5
same,"Φ: Rat mRNA for amyloidogenic glycoprotein (rAG), cognate of Human A4 amyloid precursor protein.","250 mg/kg twice daily, X07648 SEQ ID NO: 101",−1.6
same,"Φ: Rat CaMII gene, exon 1 (and joined cds).","250 mg/kg twice daily, X13833 SEQ ID NO: 113",−1.5
same,Φ: Rat mRNA for Mx3 protein.,"250 mg/kg twice daily, X52713 SEQ ID NO: 78",2
same,Φ: Mouse rac1 gene.,"250 mg/kg twice daily, X57277 SEQ ID NO: 115",−1.5
same,Φ: Rat mRNA for cdc2 promoter region.,"250 mg/kg twice daily, X60767 SEQ ID NO: 92",1.8
same,Φ: Rat L1 retroposon/pseudogene; 3′ flank.,"250 mg/kg twice daily, X61298 SEQ ID NO: 60",2.6
same,Φ: Rat mRNA for ubiquitin and ribosomal protein S27a.,"250 mg/kg twice daily, X81839 SEQ ID NO: 108",−1.5
same,Φ: Rat MAL protein gene and mRNA.,"250 mg/kg twice daily, X82557 SEQ ID NO: 110",−1.5
same,Φ: Rat mRNA for Myelin-associated/Oligodendrocytic Basic Protein-81.,"250 mg/kg twice daily, X87900 SEQ ID NO: 100",−1.6
same,Φ: Rat mRNA for Tsx gene.,"250 mg/kg twice daily, X99797 SEQ ID NO: 91",1.8
same,"Φ: Rat L1 retrotransposon mlvi2-rn14, 5′UTR and putative RNA binding protein 1 gene, partial cds.","250 mg/kg valproate twice daily, vs vehicle, U87602 SEQ ID NO: 56",3.6
